{"source": "patent US20220332758A1", "about": "“PEPTIDE-BASED COMPOSITIONS AND METHODS FOR TREATING ALZHEIMER'S DISEASE” (Board of Regents, The Universityof Texas System, priority 2019, published 2022)", "key": {"[1]": {"molecular_target": "T1, proteasome activity in CNS of non-transgenic mice (Mus musculus, UniProt P49722+Q9QUM9)", "T1 construct": "from tissue; host or cells: CNS of non-transgenic mice", "test": "Proteasome activity in CNS of mice after IP injection", "assay_type": "in vivo", "protocol": "Plate-based proteasome activity assay. Samples were homogenized by pestle in 100 μL chilled proteasome buffer (50 mM Tris, 5 mM MgCl2, 1 mM DTT, pH 7.4, vortexed and then centrifuged at 21,000 g at 4° C. for 15 minutes and supernatant transferred. Protein content was recorded by Bradford assay and samples diluted as appropriate. In a black 96-well plate, 10 μL of samples were added to 80 μL proteasome buffer supplemented with addition of 5 mM ATP for measuring 26S proteasome activity. Finally, 50 μM Suc-LLVY-AMC fluorogenic substrate in 10 μL proteasome buffer was added to each well to measure chymotrypsin-like activity. The plate was incubated at 37° C. in a SpectrumMax M2 plate reader for four hours with fluorescence measured every 10 minutes with 355 nm excitation and reading 460 nm emission. Total proteasome activity per sample was defined as the gradient of the linear trendline over this incubation period."}, "20S proteasome [2]": {"molecular_target": "T2, 20S proteasome (Homo sapiens, UniProt P25787+P60900)", "test": "AFM imaging of gate conformers of 20S proteasomes", "design": "purified from erythrocytes; purchased Boston Biochem, Inc. or Enzo Life Sciences, Inc; host or cells: human erythrocytes", "details": "1 μM", "protocol": "Atomic Force Microscopy (AFM) Imaging. Single molecules of 20S proteasomes were imaged in tapping (oscillating) mode in liquid, with a scanner E of the Multimode Nanoscope IIIa (Bruker Inc., Santa Barbara, Calif.). The proteasomes were electrostatically attached to a muscovite mica substrate, covered with imaging buffer (5 mM Tris/HCl, pH 7) and scanned using cantilevers with the spring constant of 0.35 N/m from the SNL (Sharp Nitride Lever) probes (Bruker Inc., Santa Barbara, Calif.) tuned to 9-10 kHz. The amplitude set-point in the range of 1.5-2.0V, drive voltage of 300-500 mV and 3.05 Hz scanning rate were used. Scans of 1 μm^2 fields (512×512 pixels) were collected in height-mode. The images of fields typically contained several dozens of top-view (“standing”) 20S proteasome particles. The gate status was deduced from a profile of raw height values of pixels measured by a probe scanning across the single proteasome particles. In short, under the employed scanning conditions the proteasome a face with the central gate area was completely rendered by a six-pixel (11-12 nm) scan-line fragment. Numerical values of the height of particles of raw (after standard flattening) images were collected with a practical vertical resolution reaching 1 Å. […] The “events” of gate opening/closing were analysed for scans of distinct particles as well as multiple scans of the same particles."}, "[3]": {"tested_on": "APP, BACE1 and Aβ42 levels", "test": "Immunoblot of APP and BACE1 and Aβ42 Elisa in hAPP(J20) mice", "assay_type": "in vivo, mouse", "details": "14 days treatment"}, "MC65 cells": {"tested_on": "MC65 cells", "test": "Cell death in MC65 AD cell model under tetracycline withdrawal (WST-1 viability)", "assay_type": "cell-based, human", "protocol": "Cell culture. Cells were cultured in EMEM (SK-N-SH), DMEM (MC65) supplemented with 10% heat-inactivated fetal bovine serum and antibiotics (100 U mL^−1 penicillin, 100 μg mL^−1 streptomycin, and 0.25 μg mL^−1 of amphotericin B; Gibco-Invitrogen). Incubators were maintained at 5% CO2, and 37° C. Medium was replaced every 3-4days. For most experiments, cells were seeded at 100,000 cells mL^−1 in either 6-well or 96 well plates 24 h prior to assay. In most cases, media was replaced with serum free optimem media 24 h prior to assay.\nCell viability. Cell maintained in a clear 96 well plate. On the day of assay, 10 μl of WST-1 reagent (11644807001, Sigma Aldrich) was added to each well and cells incubated in a 37° C. 5% CO2 incubator for 2-4 hours. Absorbance was measured at 450 nm using a gemini series spectrophotometer.\nThe compounds were tested as follows: in neuroblast MC65 cell culture model with overexpressed C99 fragment of amyloid precursor protein (APP) upon tetracycline withdrawal or with external APP added; and in fruit fly (D. melanogaster) model of AD with overexpressed APP and BACE1. The compounds (1 μM) were mixed with food. Flies were trained to recognize “positive” and “negative” odors (olfaction aversion). The compounds were also treated in hAPP (J20) mice which overexpress a familial variant of APP. The compounds were injected for 14 days (1 mg/kg). […]"}, "[4]": {"molecular_target": "T3, purified human 20S proteasome (Homo sapiens, UniProt P25787+P60900)", "T3 construct": "purified from erythrocytes; purchased Boston Biochem, Inc. or Enzo Life Sciences, Inc; host or cells: human erythrocytes", "test": "In-gel overlay activity on non-denaturing gel, 20S proteasome", "assay_type": "biochemical", "details": "1 microM, 15 min, 100 microM Suc-LLVY-MCA", "protocol": "Purified human 20S and 26S proteasomes were separated on non-denaturing polyacrylamide gel. The gel was overlayed with reaction buffer containing 100 microM fluorogenic peptide substrate Suc-LLVY-MCA (SEQ ID NO: 14) and 1% of vehicle solvent (DMSO) or the substrate and 1 microM Tat1 8,9 TOD. The gel was photographed after 15 min of incubation and then stained for the total protein content with Coomassie Brilliant Blue, and photographed. […] The protein content was the same for the control and Tat-overlayed sets. The activities of both 26S and 20S are enhanced by Tat1 8,9 TOD. The enhanced activity of 26S was not the result of Tat1 8,9 TOD—induced breaking of the 26S assembly into its components (19S and 20S) and activation of the released 20S catalytic core that still remains in the gel together with the whole 26S assembly. […] Traces of the 20S in both control 26S preparation and preparation pre-incubated with Tat1 8,9 TOD."}, "20S proteasome [5]": {"molecular_target": "T2, 20S proteasome", "details": "cited from earlier work"}}, "data": [{"smiles": "N=C(N)NCCCC(NC(=O)CN)C(=O)NC(CCCCN)C(=O)NC(CCCCN)C(=O)NC(CCCNC(=N)N)C(=O)NC(CCCNC(=N)N)C(=O)NC(CCC(N)=O)C(=O)N1Cc2ccccc2C[C@H]1C(=O)N1C(C(=O)NC(CCCNC(N)N)C(=O)N2CCCC2C(=O)NC(CO)C(=O)O)CC2CCCCC21", "note": "(stereo partly shown) [(5), GRKKRRQ-TOD-RPS]", "values": [{"measurement": "proteasome activity in the central nervous system", "setting": "[1]; 24 hours after intraperitoneal injection", "value": "significantly enhances proteasome activity"}, {"measurement": "blood-brain-barrier penetration", "setting": "[1]; mice, IP injection", "value": "stably penetrates the blood-brain-barrier"}, {"measurement": "intermediate conformers", "setting": "20S proteasome [2]", "value": 27, "unit": "%"}, {"measurement": "APP protein levels", "setting": "[3]", "value": "decline in both APP and BACE1 protein levels"}, {"measurement": "protein levels of BACE1", "setting": "[3]", "value": "significantly reduces"}, {"measurement": "protein levels of β-amyloid", "setting": "[3]", "value": "significantly reduces"}, {"measurement": "survival of neuroblasts overexpressing APP", "setting": "MC65 cells; 1 μM", "value": "improves survival"}, {"measurement": "cell death under tetracycline withdrawal", "setting": "MC65 cells; MC65, WST1 viability assay", "value": "significantly reduces cell death"}, {"measurement": "20S activity in gel overlay", "setting": "[4]", "value": "enhanced"}, {"measurement": "degradation by 20S proteasome", "setting": "20S proteasome [5]", "value": "resistant to degradation"}]}]}
